Laboratory results published in patent publication US4111923A, “Octapeptides and methods for their production” (Parke, Davis & Company, priority 1976, dated 1978).
Non-standard residues stand in square brackets, D forms with d. Residues, ends and D or L forms follow the SMILES beside them. *: point of attachment. Cbz = O=C(OCc1ccccc1)*; Bn = c1ccc(C*)cc1

Tested on: LRF-induced luteinizing hormone (LH) release in rat anterior pituitary cell cultures
Assay: In vitro test in rat anterior pituitary cell cultures: inhibition of LRF-induced LH release into the culture medium
Assay type: cell-based
Method: octapeptides of this invention are screened for LRF antagonist activity in vitro using rat anterior pituitary cell cultures as described by Vale et al. [Endocrinology, 91, 562 (1972)]. The inhibition of LRF-induced luteinizing hormone (LH) release into the culture medium is the endpoint in this in vitro bioassay. Active peptides are then tested in vivo by the procedures of Humphrey et al. [Endocrinology, 92, 1515 (1972)]. Antagonist activity is assessed by the inhibition of LRF-induced LH release in the female rat and LRF-induced ovulation in the rabbit.
Following are the results of the above in vitro tests on certain preferred compounds.

[1] = compound 1×10^-8 molar, LRF 5×10^-10, LRF control 46.58, saline control 9.10
[2] = compound 1×10^-9 molar, LRF 5×10^-10, LRF control 46.58, saline control 9.10
[3] = compound 5×10^-8 molar, LRF 5×10^-10, LRF control 46.58, saline control 9.10
[4] = compound 5×10^-9 molar, LRF 5×10^-10, LRF control 46.58, saline control 9.10
[5] = compound 1×10^-8 molar, LRF 3.5×10^-10, LRF control 42.38, saline control 8.72
[6] = compound 1×10^-9 molar, LRF 3.5×10^-10, LRF control 42.38, saline control 8.72
[7] = compound 1×10^-10 molar, LRF 3.5×10^-10, LRF control 42.38, saline control 8.72
[8] = compound 2×10^-9 molar, LRF 3.5×10^-10, LRF control 42.38, saline control 8.72
[9] = compound 2.5×10^-10 molar, LRF 3.5×10^-10, LRF control 42.38, saline control 8.72
[10] = compound 3.5×10^-9 molar, LRF 3.5×10^-10, LRF control 42.38, saline control 8.72
[11] = compound 6×10^-9 molar, LRF 3.5×10^-10, LRF control 42.38, saline control 8.72
[12] = compound 6×10^-10 molar, LRF 3.5×10^-10, LRF control 42.38, saline control 8.72
[13] = first series, compound 1×10^-8 molar, LRF 5×10^-10, LRF control 52.80, saline control 13.28
[14] = first series, compound 1×10^-9 molar, LRF 5×10^-10, LRF control 52.80, saline control 13.28
[15] = first series, compound 1×10^-10 molar, LRF 5×10^-10, LRF control 52.80, saline control 13.28
[16] = first series, compound 2.5×10^-9 molar, LRF 5×10^-10, LRF control 52.80, saline control 13.28
[17] = first series, compound 2.5×10^-10 molar, LRF 5×10^-10, LRF control 52.80, saline control 13.28
[18] = first series, compound 5×10^-9 molar, LRF 5×10^-10, LRF control 52.80, saline control 13.28
[19] = first series, compound 5×10^-10 molar, LRF 5×10^-10, LRF control 52.80, saline control 13.28
[20] = second series, compound 1×10^-9 molar, LRF 5×10^-10, LRF control 69.43, saline control 18.17
[21] = second series, compound 1×10^-10 molar, LRF 5×10^-10, LRF control 69.43, saline control 18.17
[22] = second series, compound 2.5×10^-9 molar, LRF 5×10^-10, LRF control 69.43, saline control 18.17
[23] = second series, compound 2.5×10^-10 molar, LRF 5×10^-10, LRF control 69.43, saline control 18.17
[24] = second series, compound 5×10^-10 molar, LRF 5×10^-10, LRF control 69.43, saline control 18.17
[25] = compound 2×10^-8 molar, LRF 3.5×10^-10, LRF control 42.38, saline control 8.72

## CCNC(=O)[C@@H]1CCCN1C(=O)[C@H](CCCNC(=N)N)NC(=O)[C@H](CC(C)C)NC(=O)[C@@H](Cc1ccccc1)NC(=O)[C@H](Cc1ccc(O)cc1)NC(=O)[C@H](CO)NC(=O)[C@H](Cc1c[nH]c2ccccc12)NC(=O)[C@H](CCC(N)=O)NC(=O)OCc1ccccc1 [N^α -Benzyloxycarbonyl-L-glutaminyl-L-tryptophyl-L-seryl-L-tyrosyl-D-phenylalanyl-L-leucyl-L-arginyl-L-proline N-ethylamide] (Cbz-QWSY[dF]LRP-NHEt)
[1]
  % LH Release Inhibition: 71%
  LH Value: 19.91 ng/mL
[2]
  % LH Release Inhibition: 23%
  LH Value: 38.13 ng/mL
[3]
  % LH Release Inhibition: 95%
  LH Value: 11.16 ng/mL
[4]
  % LH Release Inhibition: 42%
  LH Value: 30.85 ng/mL

## CCNC(=O)[C@@H]1CCCN1C(=O)[C@H](CCCNC(=N)N)NC(=O)[C@H](CC(C)C)NC(=O)[C@@H](Cc1ccccc1)NC(=O)[C@H](Cc1ccc(O)cc1)NC(=O)[C@H](CO)NC(=O)[C@H](Cc1c[nH]c2ccccc12)NC(=O)[C@H](COCc1ccccc1)NC(=O)OCc1ccccc1.Cl [N^α -Benzyloxycarbonyl-O-benzyl-L-seryl-L-tryptophyl-L-seryl-L-tyrosyl-D-phenylalanyl-L-leucyl-L-arginyl-L-proline N-ethylamide hydrochloride] (Cbz-S(Bn)WSY[dF]LRP-NHEt)
[5]
  % LH Release Inhibition: 99%
  LH Value: 9.16 ng/mL
[6]
  % LH Release Inhibition: 68%
  LH Value: 19.35 ng/mL
[7]
  % LH Release Inhibition: 18%
  LH Value: 36.48 ng/mL
[8]
  % LH Release Inhibition: 83%
  LH Value: 14.48 ng/mL
[9]
  % LH Release Inhibition: 37%
  LH Value: 29.88 ng/mL
[10]
  % LH Release Inhibition: 93%
  LH Value: 11.16 ng/mL
[11]
  % LH Release Inhibition: 93%
  LH Value: 10.95 ng/mL
[12]
  % LH Release Inhibition: 50%
  LH Value: 25.41 ng/mL

## LRF: luteinizing hormone releasing factor, also referred to as luteinizing hormone releasing hormone, or LH-RH; stimulates secretion of luteinizing hormone (QHWSYGLRPG; Gonadoliberin-1; UniProt P01148 24-33, looked up) [reference compound]
LRF alone 3.5×10^-10 molar, saline control 8.72
  LH Value: 42.38 ng/mL
LRF alone 5×10^-10 molar, saline control 9.10
  LH Value: 46.58 ng/mL
First series, LRF alone 5×10^-10 molar, saline control 13.28
  LH Value: 52.80 ng/mL
Second series, LRF alone 5×10^-10 molar, saline control 18.17
  LH Value: 69.43 ng/mL

## N^α -BENZYLOXYCARBONYL-O-BENZYL-L-SERYL-L-TRYPTOPHYL-L-SERYL-L-TYROSYL-D-PENTAMETHYLPHENYLALANYL-L-LEUCYL-L-ARGINYL-L-PROLINE N-ETHYLAMIDE
[13]
  % LH Release Inhibition: 104%
  LH Value: 11.58 ng/mL
[14]
  % LH Release Inhibition: 91%
  LH Value: 16.69 ng/mL
[15]
  % LH Release Inhibition: 36%
  LH Value: 38.59 ng/mL
[16]
  % LH Release Inhibition: 105%
  LH Value: 11.35 ng/mL
[17]
  % LH Release Inhibition: 47%
  LH Value: 34.06 ng/mL
[18]
  % LH Release Inhibition: 100%
  LH Value: 13.16 ng/mL
[19]
  % LH Release Inhibition: 70%
  LH Value: 25.16 ng/mL
[20]
  % LH Release Inhibition: 104%
  LH Value: 16.00 ng/mL
[21]
  % LH Release Inhibition: 46%
  LH Value: 46.11 ng/mL
[22]
  % LH Release Inhibition: 98%
  LH Value: 19.09 ng/mL
[23]
  % LH Release Inhibition: 77%
  LH Value: 30.08 ng/mL
[24]
  % LH Release Inhibition: 90%
  LH Value: 23.26 ng/mL

## N^α -Benzyloxycarbonyl-N^γ -benzyl-L-glutaminyl-L-tryptophyl-L-seryl-L-tyrosyl-D-phenylalanyl-L-leucyl-L-arginyl-L-proline N-ethylamide
[5]
  % LH Release Inhibition: 92%
  LH Value: 11.28 ng/mL
[6]
  % LH Release Inhibition: 56%
  LH Value: 23.66 ng/mL
[7]
  % LH Release Inhibition: 35%
  LH Value: 30.60 ng/mL
[25]
  % LH Release Inhibition: 94%
  LH Value: 10.77 ng/mL
[8]
  % LH Release Inhibition: 60%
  LH Value: 22.09 ng/mL
[9]
  % LH Release Inhibition: 20%
  LH Value: 35.62 ng/mL
[10]
  % LH Release Inhibition: 61%
  LH Value: 21.76 ng/mL
[11]
  % LH Release Inhibition: 81%
  LH Value: 15.07 ng/mL
[12]
  % LH Release Inhibition: 51%
  LH Value: 25.13 ng/mL

## N^α -Benzyloxycarbonyl-O-benzyl-L-seryl-L-tryptophyl-L-seryl-L-tyrosyl-DL-pentamethylphenylalanyl-L-leucyl-L-arginyl-L-proline N-ethylamide
[13]
  % LH Release Inhibition: 102%
  LH Value: 12.61 ng/mL
[14]
  % LH Release Inhibition: 89%
  LH Value: 17.58 ng/mL
[16]
  % LH Release Inhibition: 102%
  LH Value: 12.47 ng/mL
[17]
  % LH Release Inhibition: 61%
  LH Value: 28.53 ng/mL
[18]
  % LH Release Inhibition: 96%
  LH Value: 14.80 ng/mL
[19]
  % LH Release Inhibition: 62%
  LH Value: 28.31 ng/mL
[20]
  % LH Release Inhibition: 100%
  LH Value: 18.35 ng/mL
[21]
  % LH Release Inhibition: 42%
  LH Value: 48.03 ng/mL
[22]
  % LH Release Inhibition: 108%
  LH Value: 13.91 ng/mL
[23]
  % LH Release Inhibition: 65%
  LH Value: 36.04 ng/mL
[24]
  % LH Release Inhibition: 87%
  LH Value: 24.94 ng/mL
